# Columns and labels:
# [1] = test system: pTPF1/4B full-length HCV RNA replicon; assay: Inhibition of replication of full-length HCV RNA replicon by interferon (core antigen in Huh7 cells); format: cell-based, hepatitis C virus (genotype 1b); conditions: pTPF1/4B RNA in Huh7 cells; interferon 0.1 to 300 IU/ml for 24 hours; core antigen in cells vs no-interferon control
# Text: (§1) Evaluation of an inhibitory action of interferon on the replication of the HCV RNA replicon was attempted using the full-length HCV RNA replicon. The full-length HCV RNA used for the evaluation of the inhibitory action of interferon was pTPF1/4B which was replicable with high efficiency in Huh7 cells in Example 4 and a chimera between AHC1 obtained in Example 6 and pTPF1/4B was also used. As for a chimera vector, the full-length HCV DNA pTPF1 was digested with restriction enzymes, Age I and Bsr GI and a fragment obtained by digesting AHC1 with restriction enzymes, Age I and Bsr GI were ligated to and inserted into the region of the cleavage of pTPF1, thereby preparing HCV DNA pTPF1/AHC1_AgeBsr in which the structural protein region of AHC1 was inserted. […]
# (§2) At twenty four hours after the culture was started, the medium was replaced with culture medium dissolving various concentrations (from 0.1 IU/ml to 300 IU/ml) of interferon. […] Cell pellet was dissolved in 50 μl of RIPA buffer (20 mM Tris-HCl (pH 7.5), 150 mM NaCl, 1 mM EDTA, 1% NP40, 0.1% Deoxycholate, 0.1% SDS, Complete protease inhibitor cocktail (Roche diagnostics corporation) and supernatant was collected by centrifugation at 10 k rpm for 5 minutes. The supernatant in an amount of 5 μl was measured using a kit for HCV core antigen (FUJIREBIO, Lumipulse).
# [2] = test system: pTPF1/AHC1_AgeBsr full-length HCV RNA replicon; assay: as above; format: cell-based, hepatitis C virus (genotype 1b); conditions: interferon 0.1 to 300 IU/ml for 24 hours, core antigen in cells vs no-interferon control
# Text: as §1, §2
substance,measurement,setting,value
interferon,Inhibitory activity for replication of HCV RNA replicon: IC50,[1],>300 IU/m
same,Inhibitory activity for replication of HCV RNA replicon: IC50,[2],33 IU/m
